{"source": "patent US20060002989A1", "about": "“Formulations of sumatriptan for absorption across biological membranes, and methods of making and using the same” (priority 2004, published 2006)", "test_system": "pig buccal membrane", "experiment": "Trans-buccal absorption across pig buccal epithelial membrane in side-by-side diffusion cells", "settings": "for Steady-state flux, Fs: pig, 6 h", "protocol": "In a side-by-side diffusion experiment, there exists a reservoir on each side of the test biological membrane. […] The steady state flux of absorption, Fs, is calculated by the formula, Fs=(dQ/dt)/A=(dC/dt)×(V/A), wherein Q is the amount of drug permeated, C is the concentration of the drug, A is the permeation area, V is the chamber volume in a side-by-side diffusion cell, and t is the time period over which the drug permeation is monitored. Fs can be determined from the slope of the line attained from plotting the cumulative amount of drug permeated per unit area as a function of time.\nFreshly prepared buccal tissue from pigs was used to prepare the buccal epithelial membrane. A dermatometer was used to obtain the buccal epithelial membrane by separating it from the underlying connective tissue. The buccal membranes were used within 3-4 hours of removal of buccal tissue from the pigs.\nThe buccal epithelial membrane was mounted between side-by-side diffusion cells. The exposed area of the buccal membrane was approximately 0.64 cm^2. […] The final volume of the liquid in the donor-side was 3.5 ml and the volume in the receptor-side was 3.5 ml.\nThe diffusion system was maintained at 37° C. throughout the experiment. At predetermined intervals over a period of 6 hours, 150 μl of the solution from the receptor-side was withdrawn for HPLC analysis. The receptor-side was refilled with the same volume (150 μl) of KRB solution.\nHPLC analysis of the solution withdrawn from the receptor-side was performed using a Waters 2695 separation module HPLC system equipped with a reverse phase C18 column (150 mm×3.9 mm ID, 5 μm) (Waters Corp., Milford, Mass.). The mobile phase was 88% phosphate buffer (0.05 M NH4H2PO4/H3PO4, pH 3.3) and 12% acetonitrile. […] The software used for HPLC assay data analysis was Millenium 32 (Waters Corp., Milford, Mass.).\nMicrosoft Excel 2000 was used to calculate the steady state flux value of the absorption of the drug across the buccal membrane. The steady state flux (Fs)=(dQ/dt)/A=(dC/dt)×(V/A), wherein Q is the amount of drug permeated, C is concentration of the drug, A is the permeation area, V is the chamber volume, and t is the time period over which the drug permeation is monitored.\nThe receptor-side contained 3.5 ml of KRB solution.", "note": "Where two headings read alike, the source gives them in different places."}
{"compound": "CCCCCCCC(=O)[O-].[Na+]", "note": "[sodium caprylate]", "values": [{"measurement": "effect of absorption enhancer on permeation of sumatriptan succinate across the buccal membrane", "setting": "result in words", "result": "enhanced the permeation"}]}
{"compound": "CNS(=O)(=O)Cc1ccc2[nH]cc(CCN(C)C)c2c1.O=C(O)CCC(=O)O", "note": "[Salt (SS) alone, sumatriptan succinate, reference compound]", "values": [{"measurement": "Steady-state flux, Fs", "setting": "12 mM", "result": "6.0 ± 6.6", "unit": "ng/cm^2/min"}]}
{"compound": "CCCCCCCCCC(=O)[O-].[Na+]", "note": "[sodium caprate]", "values": [{"measurement": "effect of absorption enhancer on permeation of sumatriptan succinate across the buccal membrane", "setting": "result in words", "result": "enhanced the permeation"}, {"measurement": "effect of absorption enhancer on permeation of sumatriptan succinate across the buccal membrane", "setting": "result in words, listed as Sodium caprate", "result": "most dramatic effect"}]}
{"compound": "CNS(=O)(=O)Cc1ccc2[nH]cc(CCN(C)C)c2c1", "note": "[Base alone, 3-[2-(dimethylamino)ethyl]-N-methyl-indole-5-methanesulphonamide, reference compound]", "values": [{"measurement": "effect of absorption enhancers on absorption of sumatriptan base", "result": "not significantly enhanced"}, {"measurement": "Steady-state flux, Fs", "setting": "6.8 mM", "result": "1.6 ± 1.5", "unit": "ng/cm^2/min"}]}
{"compound": "CCCCCCCCCCCC(=O)O", "note": "[lauric acid]", "values": [{"measurement": "effect of absorption enhancer on permeation of sumatriptan succinate across the buccal membrane", "result": "only minor enhancing effects"}]}
{"compound": "lysolecithin", "values": [{"measurement": "effect of absorption enhancer on permeation of sumatriptan succinate across the buccal membrane", "result": "only minor enhancing effects"}]}
{"compound": "CCCCCCCCCCCC(=O)[O-].[Na+]", "note": "[sodium laurate]", "values": [{"measurement": "effect of absorption enhancer on permeation of sumatriptan succinate across the buccal membrane", "setting": "result in words", "result": "enhanced the permeation"}]}
{"compound": "CCCCCCCCCCCCOS(=O)(=O)[O-].[Na+]", "note": "[sodium lauryl sulfate (SLS), sodium lauryl sulfate]", "values": [{"measurement": "effect of absorption enhancer on permeation of sumatriptan succinate across the buccal membrane", "setting": "result in words", "result": "enhanced the permeation"}]}
{"compound": "C[C@H](CCC(=O)NCC(=O)[O-])[C@H]1CC[C@H]2[C@@H]3[C@H](O)C[C@@H]4C[C@H](O)CC[C@]4(C)[C@H]3C[C@H](O)[C@]12C.[Na+]", "note": "[sodium glycocholate]", "values": [{"measurement": "effect of absorption enhancer on permeation of sumatriptan succinate across the buccal membrane", "result": "only minor enhancing effects"}]}
